Results from US20050026911A1, “Benzotriazapinone salts and methods for using same” (priority 2003, published 2005).

What follows are molecules tested against T1, gastrin (CCK2) receptors (Rattus norvegicus, UniProt P30553) (assay: gastrin (CCK2) antagonist activity in an immature rat stomach assay). Conditions: pentagastrin dose-response curves, acid secretion, read-out: pKB rat stomach (converted).
T1 construct: The stomach was excised and flushed with ca. 1 ml of unbuffered physiological saline solution; from tissue; host or cells: isolated whole stomach of immature rats (ca. 21 days old)
T1 sequence (P30553 1-452): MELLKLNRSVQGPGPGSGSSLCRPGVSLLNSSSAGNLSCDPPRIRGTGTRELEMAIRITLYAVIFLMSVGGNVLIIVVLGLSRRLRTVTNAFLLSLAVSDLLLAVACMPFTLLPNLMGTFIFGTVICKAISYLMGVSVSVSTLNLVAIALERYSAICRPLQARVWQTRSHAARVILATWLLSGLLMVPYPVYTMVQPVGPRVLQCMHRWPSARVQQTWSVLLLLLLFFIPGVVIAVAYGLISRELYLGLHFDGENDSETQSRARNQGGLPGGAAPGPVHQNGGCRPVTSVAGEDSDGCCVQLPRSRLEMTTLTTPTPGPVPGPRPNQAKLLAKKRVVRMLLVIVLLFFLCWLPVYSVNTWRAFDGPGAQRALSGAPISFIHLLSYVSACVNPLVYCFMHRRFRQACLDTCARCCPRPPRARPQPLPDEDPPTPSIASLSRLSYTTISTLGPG
Description: The compounds of the examples were tested for gastrin (CCK2) antagonist activity in an immature rat stomach assay. The procedure was as follows:
The oesophagus of immature rats (33-50 g, ca. 21 days old) was ligated at the level of the cardiac sphincter and the duodenal sphincter was cannulated. The stomach was excised and flushed with ca. 1 ml of unbuffered physiological saline solution. The fundus was punctured and cannulated. A further 4-5 ml of unbuffered solution was flushed through the stomach to ensure the preparation was not leaking. […] The stomach was continuously perfused at a rate of 1 ml min^−1 with unbuffered solution gassed with 100% O2 with the perfusate passing over an internally referenced pH-electrode fixed 12 cm above the stomach.
After 120 min of stabilisation the drugs were added directly to the serosal solution in the organ bath and after a further 60 min cumulative pentagastrin dose-response curves were started.

Compound	Kb [nM]
COC(=O)c1coc(-c2cccc(NC(=O)CN3N=C(C4CCCCC4)c4ccccc4N(CC(=O)C(C)(C)C)C3=O)c2)n1 [Example 140, 2-(3-{2-[5-Cyclohexyl-1-(3,3-dimethyl-2-oxo-butyl)-2-oxo-1,2-dihydro-3H-1,3,4-benzotriazepin-3-yl]-acetylamino}-phenyl)-oxazole-4-carboxylic acid methyl ester]	1.12
CC(C)(C)C(=O)CN1C(=O)N(CC(=O)Nc2cccc(SCC(=O)O)c2)N=C(C2CCCCC2)c2ccccc21 [Example 38, (3-{2-[5-Cyclohexyl-1-(3,3-dimethyl-2-oxo-butyl)-2-oxo-1,2-dihydro-3H-1,3,4-benzotriazepin-3-yl]-acetylamino}-phenylsulfanyl)-acetic acid]	6.61
CC(C)(C)C(=O)CN1C(=O)N(CC(=O)Nc2cc(C(=O)O)cc(C(=O)O)c2)N=C(C2CCCCC2)c2ccccc21 [Example 39, 5-{2-[5-Cyclohexyl-1-(3,3-dimethyl-2-oxo-butyl)-2-oxo-1,2-dihydro-3H-1,3,4-benzotriazepin-3-yl]-acetylamino}-isophthalic acid]	7.59
O=C(O)CSc1cccc(NC(=O)CN2N=C(C3CCCCC3)c3ccccc3N(CC(=O)C3CC3)C2=O)c1 [Example 120, [3-(2-{5-Cyclohexyl-1-(2-cyclopropyl-2-oxo-ethyl)-2-oxo-1,2-dihydro-3H-1,3,4-benzotriazepin-3-yl]-acetylamino}-phenylsulfanyl)-acetic acid]	37.2
CC(C)(C)C(=O)CN1C(=O)N(CC(=O)Nc2cccc(SCc3nn[nH]n3)c2)N=C(C2CCCCC2)c2ccccc21 [Example 86, 2-[5-Cyclohexyl-1-(3,3-dimethyl-2-oxo-butyl)-2-oxo-1,2-dihydro-3H-1,3,4-benzotriazepin-3-yl]-N-[3-(4H-tetrazol-5-ylmethylsutfanyl)-phenyl]-acetamide]	3.39
O=C(CN1N=C(C2CCCCC2)c2ccccc2N(CC(=O)C2CCCCC2)C1=O)Nc1cccc(C(=O)O)c1 [Example 79, 3-{2-[5-Cyclohexyl-1-(2-cyclohexyl-2-oxo-ethyl)-2-oxo-1,2-dihydro-3H-1,3,4-benzotriazepin-3-yl]-acetylamino}-benzoic acid]	2.51
CC(C)(C)C(=O)CN1C(=O)N(CC(=O)Nc2cccc3c2ccn3CC(=O)O)N=C(C2CCCCC2)c2ccccc21 [Example 127, (4-{2-[5-Cyclohexyl-1-(3,3-dimethyl-2-oxo-butyl)-2-oxo-1,2-dihydro-3H-1,3,4-benzotriazepin-3-yl]-acetylamino}-indol-1-yl)-acetic acid]	2.09
CCOCCNc1cccc(NC(=O)CN2N=C(C3CCCCC3)c3ccccc3N(CC(=O)C(C)(C)C)C2=O)c1 [Example 42, 2-[5-Cyclohexyl-1-(3,3-dimethyl-2-oxo-butyl)-2-oxo-1,2-dihydro-3H-1,3,4-benzotriazepin-3-yl]-N-[3-(2-ethoxy-ethylamino)-phenyl)-acetamide]	105

Next, values leading:

Kb [nM]	Compound
11.7	CC1(C(=O)CN2C(=O)N(CC(=O)Nc3cccc(C(=O)O)c3)N=C(C3CCCCC3)c3ccccc32)CCCC1 [Example 88, 3-(2-{5-Cyclohexyl-1-[2-(1-methyl-cyclopentyl)-2-oxo-ethyl]-2-oxo-1,2-dihydro-3H-1,3,4-benzotriazepin-3-yl}-acetylamino)-benzoic acid]
61.7	CC(C)(C)C(=O)CN1C(=O)N(CC(=O)Nc2cccc(CC(=O)O)c2)N=C(C2CCCCC2)c2ccccc21 [Example 29, (3-{2-[5-Cyclohexyl-1-(3,3-dimethyl-2-oxo-butyl)-2-oxo-1,2-dihydro-3H-1,3,4-benzotriazepin-3-yl]-acetylamino}-phenyl)-acetic acid]
4.47	CC(C)(C)C(=O)CN1C(=O)N(CC(=O)Nc2cccc(CCC(=O)O)c2)N=C(C2CCCCC2)c2ccccc21 [Example 61, 3-(3-{2-[5-Cyclohexyl-1-(3,3-dimethyl-2-oxo-butyl)-2-oxo-1,2-dihydro-3H-1,3,4-benzotriazepin-3-yl]-acetylamino}-phenyl)-propionic acid]
40.7	Cc1ccc2c(c1)N(CC(=O)C(C)(C)C)C(=O)N(CC(=O)Nc1cccc(C(=O)O)c1)N=C2C1CCCCC1 [Example 112, 3-{2-[5-Cyclohexyl-1-(3,3-dimethyl-2-oxo-butyl)-8-methyl-2-oxo-1,2-dihydro-3H-1,3,4-benzotriazepin-3-yl]-acetylamino}-benzoic acid]
93.3	CC(C)(CO)C(=O)CN1C(=O)N(CC(=O)Nc2cccc(CC(=O)O)c2)N=C(C2CCCCC2)c2ccccc21 [Example 110, (3-{2-[5-Cyclohexyl-1-(4-hydroxy-3,3-dimethyl-2-oxo-butyl)-2-oxo-1,2-dihydro-3H-1,3,4-benzotriazepin-3-yl]-acetylamino}-phenyl)-acetic acid]
7.24	CN(CC(=O)O)c1cccc(NC(=O)CN2N=C(C3CCCCC3)c3ccccc3N(CC(=O)C(C)(C)C)C2=O)c1 [Example 96, [(3-{2-[5-Cyclohexyl-1-(3,3-dimethyl-2-oxo-butyl)-2-oxo-1,2-dihydro-3H-1,3,4-benzotriazepin-3-yl]-acetylamino}-phenyl)-methyl-amino]-acetic acid]
3.16	CC1(C(=O)CN2C(=O)N(CC(=O)Nc3cccc(-c4nc(=O)o[nH]4)c3)N=C(C3CCCCC3)c3ccccc32)CCCC1 [Example 87]
27.5	CC(C)(C)C(=O)CN1C(=O)N(CC(=O)Nc2ccc3c(ccn3CC(=O)O)c2)N=C(C2CCCCC2)c2ccccc21 [Example 117, (5-{2-[5-Cyclohexyl-1-(3,3-dimethyl-2-oxo-butyl)-2-oxo-1,2-dihydro-3H-1,3,4-benzotriazepin-3-yl]-acetylamino}-indol-1-yl)-acetic acid]
40.7	Cc1cc(NC(=O)CN2N=C(C3CCCCC3)c3ccccc3N(CC(=O)C(C)(C)C)C2=O)cc(C(=O)O)c1 [Example 91, 3-{2-[5-Cyclohexyl-1-(3,3-dimethyl-2-oxo-butyl)-2-oxo-1,2-dihydro-3H-1,3,4-benzotriazepin-3-yl]-acetylamino}-5-methyl-benzoic acid]
155	CC(C)(C)C(=O)CN1C(=O)N(CC(=O)Nc2ccc3ncn(CC(=O)O)c3c2)N=C(C2CCCCC2)c2ccccc21 [Example 94, (6-{2-[5-Cyclohexyl-1-(3,3-dimethyl-2-oxo-butyl)-2-oxo-1,2-dihydro-3H-1,3,4-benzotriazepin-3-yl]-acetylamino)-benzimidazol-1-yl)-acetic acid]
2.19	O=C(CN1N=C(C2CCCCC2)c2ccccc2N(CC(=O)C2CCCCC2)C1=O)Nc1cccc(-c2nc(=O)o[nH]2)c1 [Example 111, 2-[5-Cyclohexyl-1-(2-cyclohexyl-2-oxo-ethyl)-2-oxo-1,2-dihydro-3H-1,3,4-benzotriazepin-3-yl]-N-[3-(5-oxo-2,5-dihydro-[1,2,4]oxadiazol-3-yl)-phenyl]-acetamide]
11.2	CC(C)(C)C(=O)CN1C(=O)N(CC(=O)Nc2cccc(-c3nn[nH]n3)c2)N=C(C2CCCCC2)c2ccccc21 [Example 23, 2-[5-Cyclohexyl-1-(3,3-dimethyl-2-oxo-butyl)-2-oxo-1,2-dihydro-3H-1,3,4-benzotriazepin-3-yl]-N-[3-(2H-tetrazol-5-yl)-phenyl]-acetamide]
3.47	CC(C)(C)C(=O)CN1C(=O)N(CC(=O)Nc2cccc(/C=C/C(=O)O)c2)N=C(C2CCCCC2)c2ccccc21 [Example 60, 3-(3-{2-[5-Cyclohexyl-1-(3,3-dimethyl-2-oxo-butyl)-2-oxo-1,2-dihydro-3H-1,3,4-benzotriazepin-3-yl]-acetylamino}-phenyl)-acrylic acid]
